Legend:
Antibody Forming Cells = Antibody Forming Cells count (Jerne) in spleen after immunization with sheep erythrocytes; format: in vivo, (CBA×C57BL)F1 mice
Description: (§1) Females and male (CBA×C57BL)F1 mice, aged about 2.5 months weighing about 20 g, were irradiated with gamma-rays using a "Luch-1" apparatus. Immunological activity was assessed according to Jerne (Antibody Forming Cells count--AFC). T-cell count in spleen was determined by the method of spontaneous rosette formation with sheep erythrocytes (E-FRC). The peptide was injected intramuscularly.
(§2) Mice were irradiated in a dose of 2 Gy, the peptide was injected in the dose of 10 μg/kg according to the following scheme (to determine T-cell count by the method of spontaneous rosette formation): 1 time--an hour after the irradiation; 2 times--an hour, and a day after irradiation; 3 times--an hour, a day, and two days after the irradiation; 4 times--an hour, a day, two days and three days after the irradiation. The intact mice recieved the peptide 3 or 4 times. The control group (2 Gy) recieved injections of physiological solution according to the same schedule. On completion of the treatment course, 10 mice from each group were immunized with sheep erythrocytes (SE) and 4-5 days later AFC counts were determined in their spleens. The rest of the mice were used to find T-cell count by the method of spontaneous rosette formation. The state of the organs of immune system (spleen and thymus) in mice with radiation immunodeficiency against the background of H-Ile-Glu-Trp-OH treatment was also listed by nucleated cell counts in thymus and spleen per mg of organ weight. AFC/mg Spleen weight is presented as an average of two experiments.

[1] = tested on: karyocytes in spleen and thymus; assay: Nucleated cell counts in thymus and spleen per mg of organ weight, radiation immunodeficiency; format: in vivo, (CBA×C57BL)F1 mice; details: 2 Gy
Description: as §1, §2

hemoglobin, erythrocytes = assay: Erythropoiesis in irradiated mice (4 Gy); format: in vivo; details: for Hemoglobin Content in blood: 4 Gy
Text: The effect of the peptide on erythropoiesis in irradiated mice (4 Gy) was also studied. The mice were irradiated and treated with the peptide as in Example 7.

CFU-S-8 and CFU-S-12 = assay: Cytostatic (Cytosine-Arabinoside)-induced cytopenia: karyocytes, CFU-S-8, CFU-S-12 in bone marrow; format: in vivo, mice; details: donor bone marrow; CA 20 mg/kg i.p. once; N 10 μg/kg once daily, three injections
Description: Used as a cytostatic, Cytosine-Arabinoside (CA) was intraperitoneally injected to donor mice once in the dose of 20 mg/kg. The peptide was given according to the following scheme: 10 μg/kg once daily, three injections starting from the first hour after CA. Intact mice received H-Ile-Glu-Trp-OH in the same doses and according to the same schedule. On day 8 after the cytostatic injection, determined were karyocyte count in the donor bone marrow and the content of hemopoietic progenitors of different polipotencies: committed CFU-S-8 and CFU-S-12. CFU-8 are committed stem cells which later undergo differentiation. CFU-12 are the polypotent cells, from which stem cells can be recruited (i.e. they maintain the pool of stem cells). This is a slowly proliferating cell population, mainly in G phase. That is why it is important to evaluate the effect of a preparation on the pools of both committed (CFU-8) and polypotent (CFU- 12) cells. To this end, bone marrow was extracted from donor's femoral bones and injected to lethally irradiated recipients. After the cell injections, every test group was divided into 2 subgroups: some animals were killed on day 8, the other on day 12. Spleens were taken out and the colonies were counted. The tests were carried out on 105 mice.

[2] = Clinical study: tolerance, biochemical indices, humoral status; format: in vivo, patients
Text: The clinical study of H-Ile-Glu-Trp-OH was continued in groups of patients with pronounced secondary pathological changes in their immune system. The primary task of the first stage of the investigation was to observe the preparation tolerance, to reveal toxic, allergic and other reactions, hemogram dynamics and biochemical indices. Further investigation, along with further monitoring of the major clinical and laboratory parameters, included evaluation of the immunological status of a patient before and after the immunopeptide treatment.
Before instituting the treatment, examination was carried out including case history, clinical, laboratory and instrumental investigations. Necessary morphological investigations were performed to verify the diagnosis. There were also the results of hemogram dynamics before and after each treatment course of H-Ile-Glu-Trp-OH. After these courses the biochemical indices and urine tests were examined again. X-ray, ultrasonic and morphological examinations were repeated on indication.
Humoral immunity was also investigated: the content of different types of immunoglobulins, protein fractions, antibodies to thyroid, and the Coombs test (the latter was performed in the case of haemolytic anaemia).
One ml daily, intranasally, once or twice in divided doses, for 5 days. The course was repeated after a 3-week interval. To those patients who received a cytostatic mono- or polychemotherapy, H-Ile-Glu-Trp-OH was administered from the first day of the break in the cytostatic treatment.

[3] = Chronic toxicity, general state and pathomorphologic investigation; format: in vivo
Text: The general state of the animals, behaviour, motor function, cardio-vascular, respiratory activity, liver and kidney functions were within the range of physiologic fluctuations.

[4] = Effect on cardio-vascular and respiratory systems, guinea pigs; format: in vivo
Description: The effects of H-Ile-Glu-Trp-OH on ECG and arterial pressure were studied in guinea pigs and cats.
The test was conducted in 20 guinea pigs.

[5] = Observation during study of specific and general pharmacological activity; format: in vivo, mice, guinea pigs, rats, rabbits; details: during the study and 1-6 month observation period
Description: In the study of specific and general pharmacological activity, the test animals were mice, guinea pigs, rats, rabbits. Some tests were performed using lymphocyte or monocyte cultures of the peritheric blood of donors and patients with different diseases accompanied by immunity disorders.

H-Ile-Glu-Trp-OH
AFC/mg Spleen (Antibody Forming Cells; 2 Gy, 10 μg/kg i.m., 3 Injection): 152.4 ± 4.1
AFC/mg Spleen (Antibody Forming Cells; 2 Gy, 10 μg/kg i.m., 4 Injection): 158.1 ± 7.1
AFC/mg Spleen (Antibody Forming Cells; intact mice, 3 Injections): 621.1 ± 14.2
AFC/mg Spleen (Antibody Forming Cells; intact mice, 4 Injections): 676.1 ± 47.5
AFC increase (Antibody Forming Cells; intact mice, humoral response to SE): 5 times
number of antibody forming cells (Antibody Forming Cells; irradiated mice, 3 and 4 injections): practically doubled
Karyocyte Count, Spleen ([1]; 1 Injection): 1120 ± 73 10^3 /mg
Karyocyte Count, Thymus ([1]; 1 Injection): 1860 ± 200 10^3 /mg
Karyocyte Count, Spleen ([1]; 2 Injection): 890 ± 80 10^3 /mg
Karyocyte Count, Thymus ([1]; 2 Injection): 1840 ± 380 10^3 /mg
Karyocyte Count, Spleen ([1]; 3 Injection): 980 ± 80 10^3 /mg
Karyocyte Count, Thymus ([1]; 3 Injection): 2590 ± 400 10^3 /mg
Karyocyte Count, Spleen ([1]; 4 Injection): 1160 ± 100 10^3 /mg
Karyocyte Count, Thymus ([1]; 4 Injection): 2480 ± 280 10^3 /mg
Erythrocyte counts, test versus control groups (hemoglobin, erythrocytes; 4 Gy mice): did not differ
restoration of hemoglobin level (hemoglobin, erythrocytes; 4 Gy treated mice (control: by day 14)): become normal by the 11th day
Hemoglobin Content in blood (hemoglobin, erythrocytes; scheme 2, 1 Time, Day 7): 9.4 ± 0.8 r/dl
Hemoglobin Content in blood (hemoglobin, erythrocytes; scheme 2, 1 Time, Day 11): 12.6 ± 0.1 r/dl
Hemoglobin Content in blood (hemoglobin, erythrocytes; scheme 2, 1 Time, Day 14): 11.8 ± 0.5 r/dl
Hemoglobin Content in blood (hemoglobin, erythrocytes; scheme 2, 1 Time, Day 18): 12.1 ± 0.1 r/dl
Hemoglobin Content in blood (hemoglobin, erythrocytes; scheme 2, 1 Time, Day 21): 12.1 ± 0.4 r/dl
Hemoglobin Content in blood (hemoglobin, erythrocytes; scheme 2, 2 Times, Day 7): 9.6 ± 0.4 r/dl
Hemoglobin Content in blood (hemoglobin, erythrocytes; scheme 2, 2 Times, Day 11): 12.0 ± 0.1 r/dl
Hemoglobin Content in blood (hemoglobin, erythrocytes; scheme 2, 2 Times, Day 14): 10.8 ± 0.8 r/dl
Hemoglobin Content in blood (hemoglobin, erythrocytes; scheme 2, 2 Times, Day 18): 11.5 ± 0.6 r/dl
Hemoglobin Content in blood (hemoglobin, erythrocytes; scheme 2, 2 Times, Day 21): 11.7 ± 0.6 r/dl
Hemoglobin Content in blood (hemoglobin, erythrocytes; scheme 2, 3 Times, Day 7): 10.15 ± 0.8 r/dl
Hemoglobin Content in blood (hemoglobin, erythrocytes; scheme 2, 3 Times, Day 11): 11.9 ± 0.4 r/dl
Hemoglobin Content in blood (hemoglobin, erythrocytes; scheme 2, 3 Times, Day 14): 12.1 ± 0.2 r/dl
Hemoglobin Content in blood (hemoglobin, erythrocytes; scheme 2, 3 Times, Day 18): 11.7 ± 0.2 r/dl
Hemoglobin Content in blood (hemoglobin, erythrocytes; scheme 2, 3 Times, Day 21): 11.9 ± 0.3 r/dl
Hemoglobin Content in blood (hemoglobin, erythrocytes; scheme 2, 4 Times, Day 7): 14.4 ± 0.9 r/dl
Hemoglobin Content in blood (hemoglobin, erythrocytes; scheme 2, 4 Times, Day 11): 12.2 ± 0.1 r/dl
Hemoglobin Content in blood (hemoglobin, erythrocytes; scheme 2, 4 Times, Day 14): 12.0 ± 0.2 r/dl
Hemoglobin Content in blood (hemoglobin, erythrocytes; scheme 2, 4 Times, Day 18): 11.7 ± 0.4 r/dl
Hemoglobin Content in blood (hemoglobin, erythrocytes; scheme 2, 4 Times, Day 21): 12.0 ± 0.6 r/dl
Day 8 COUNT CFU-S-8 (CFU-S-8 and CFU-S-12): 2805 ± 232
Day 8 COUNT CFU-S-12 (CFU-S-8 and CFU-S-12): 2930 ± 152
Day 8 COUNT Karyocytes (CFU-S-8 and CFU-S-12): 23.0 ± 0.9 × 10^6
protein fractions and immunoglobulins in patients' sera ([2]; 1-1.5 months after the treatment): No dynamics of these indices was found
dynamics of biochemical indices ([2]; before and after 1-3 treatment courses): revealed no changes
AP dynamics and ECG ([2]; human, in vivo): failed to reveal any changes
adverse reactions ([2]; prolonged administration (5-6 courses), intranasally): no toxic reactions
pathomorphologic investigation (with histologic investigation of organs) ([3]; chronic toxicity): failed to find any pathologic processes
side effects ([3]; doses 10-100 times as large as the therapeutic ones): no side effects were observed
ECG readings and arterial pressure [4]: No significant difference from control
toxic or allergic reactions [5]: no toxic or allergic reactions were observed

— US6159940A, “Method for modulating hemopoiesis” (Immunotech Developments Inc., priority 1999, dated 2000)
